Here are results for one substance from article PMC11452689 (Communications Biology, 2024).

The experiment in a line: LUV membrane polarisation, oxonol VI, Na+/K+ gradient. Type of experiment: biochemical. The conditions noted are these: 100 mM NaCl inside, 100 mM KCl outside, pH 7.2, 0.5 MIC.

On to valinomycin, for which the “diffusion potential in the cation gradient LUV model, in words” value is “inside positive polarisation”.
